Assay results reported in US9920053B2, “N-(hetero)aryl-substituted heteroyclic derivatives useful for the treatment of diseases or conditions related to the central nervous system” (CHRONOS THERAPEUTICS LIMITED, priority 2014, dated 2018).

What was measured:
[1] = target: human norepinephrine transporter (NET) (Homo sapiens (Human), UniProt P23975); assay: Scintillation Proximity Assay (SPA) for human NET binding ([3H]nisoxetine); conditions: recombinant human NET, CHO membranes
Excerpt: (§1) Affinity is expressed in terms of inhibition constant (Ki) of the compounds of the invention for DAT, NET and SERT, and it is typically calculated from the IC50 values obtained in competition experiments using Cheng and Prusoff equation (Cheng and Prusoff, Biochem. Pharmacol. 22:3099, 1973). In the context of the present invention pKi values (corresponding to the antilogarithm of Ki) are used instead of Ki; pKi are only estimated to be accurate to about 0.3 log unit.
(§2) Chinese Hamster Ovary (CHO) cells stably expressing either human DAT (hDAT-CHO) or human NET (hNET-CHO) or human SERT (hSERT-CHO) are used for the membrane preparations for radioligand binding assays using Scintillation proximity Assay (SPA) technique. Each cell line is cultured independently in F-12K Nutrient Mixture containing 10% of Fetal Bovine Serum (FBS) supplemented with 450 μg/ml G-418. When cells are at 70-80% of confluence 3 mM Na Butyrate was added to the cell culture medium. After 24 h of incubation, the culture medium was removed and the cells detached with Versene (DAT) or by scraping (NET and SERT). Cell suspension is centrifuged at 41,000 g for 10 minutes at 4° C. The resultant pellets are re-suspended in 15 volumes of Ice-cold buffer (20 mM HEPES, 145 mM NaCl, 5 mM KCl, pH7.3), homogenized using an Ultra Turrax homogeniser and centrifuged as before. The resultant membrane pellets are re-suspended in up to 15 volume of ice-cold buffer, incubated for 20 minutes at 37° C and centrifuged as before at 41,000 g. The final membrane pellets are re-suspended into 5-10 volumes of ice-cold buffer, dispensed into 0.5 ml aliquots and stored at −80° C. until use. Protein concentration for each preparation is determined using Bio-Rad Protein Assay Kit.
(§3) The affinity of the compounds of the invention to the human DAT or NET or SERT transporters is assessed by using the [^3H]WIN-35,428 or [^3H]nisoxetine or [^3H]citalopram binding assays in recombinant human DAT, NET and SERT membranes with the SPA technology. The final assay volume is 50 μL in 384 well plates.
(§4) Briefly, 0.5 μL of test compound in neat DMSO or 0.5 μL of DMSO for total binding (TB) or 0.5 μL of indatraline 1 mM (10 μM final concentration) for non specific binding (NSB) are added to the assay plate. 50 μL of the SPA mixture is added to each well, containing: 30 μg/mL or 10 μg/mL or 25 μg/mL DAT, NET, SERT membranes, respectively; 5 nM [^3H]WIN-35,428 or 5 nM [^3H]nisoxetine or 1 nM [^3H]citalopram, for DAT, NET, SERT assay, respectively; 2.5 mg/mL or 1 mg/mL or 4 mg/mL WGA-PVT SPA beads (PerkinElmer RPNQ0001, for DAT, NET, SERT assay, respectively. All components are added to Assay Buffer (20 mM HEPES pH 7.4, 145 mM NaCl, 5 mM KCl, 0.01% Pluronic F-127). 0.02% BSA was used for DAT binding only. Plates are sealed with Topseal A and centrifuged 1 min, 800 rpm. Plates are loaded into a 1450 Microbeta TriLux (Perkin-Elmer) plate reader and the radioactivity counted after at least 4 hrs or overnight incubation at room temperature. Curve fitting and IC50 estimations are performed using a four parameter model in XLfit (IDBS, Guilford, UK) for Microdoft Excel (Microsoft, Redmond, Wash.).

[2] = target: human serotonin transporter (SERT) (Homo sapiens (Human), UniProt P31645); assay: Scintillation Proximity Assay (SPA) for human SERT binding ([3H]citalopram); conditions: recombinant human SERT, CHO membranes
Excerpt: as §1, §2, §3, §4

[3] = target: human ERG potassium channel (hERG) (Homo sapiens (Human), UniProt Q12809); assay: hERG channel tail current recording using Rapid ICE automated patch-clamp; type: cell-based; conditions: HEK293 cells stably transfected with hERG
Protocol: The potency of the compounds of the invention in inhibiting human ERG potassium channel (hERG) tail current is assessed in a recombinant HEK293 cell line stably transfected with hERG cDNA using Rapid ICE™ (Rapid Ion Channel Electrophysiology) assay. Rapid ICE™ is an automated patch-clamp assay utilizing the PatchXpress 7000A system (Molecular Devices Corporation) or the QPatch HTX system (Sophion Bioscience A/S).
Briefly cells are cultivated for 24 to 72 hours before recordings in minimum essential medium supplemented with 10% FBS, 1% non-essential amino acids, 1% sodium pyruvate, 2 mM L-glutamine. The day of the experiment cells are detached with TrypLE and prepared to be loaded on the instrument. For PatchXpress cells are finally resuspended in 150 μl of Extracellular Buffer whereas for QPatch cells are resuspended in 7 ml Serum-Free Media containing 25 mM Hepes and Soybean trypsin inhibitor and immediately placed in the cell storage tank of the machine. The composition of the Extracellular Buffer is (mM): NaCl 137; KCl 4; CaCl2 1.8; MgCl2 1.0; D-glucose 10; N 2 hydroxyethylpiperazine-N′-2-ethanesulfonic acid (HEPES) 10; pH 7.4 with 1 M NaOH. The composition of the pipette solution is (mM): KCl 130; MgCl2 1.0; Ethylene glycol-bis(β-aminoethyl ether)-N,N,N′,N′-tetraacetic acid (EGTA) 5; MgATP 5; HEPES 10; pH 7.2 with 1 M KOH. The voltage protocol includes the following steps: step from −80 mV to −50 mV for 200 ms, +20 mV for 4.8 s, step to −50 mV for 5 s then step to the holding potential of −80 mV. Compounds of the invention are dissolved in DMSO and diluted in Extracellular Buffer to achieve final test concentrations (0.1, 1 and 10 μM) in 0.1% DMSO. The voltage protocol is run and recorded continuously during the experiment. The vehicle, corresponding to 0.1% DMSO in Extracellular Buffer, is then applied for 3 min followed by the test substance in triplicate. The standard combined exposure time is 5 min. The average of tail current amplitude values recorded from 4 sequential voltage pulses is used to calculate for each cell the effect of the test substance by calculating the residual current (% control) compared with vehicle pre-treatment. Data are reported as % inhibition for each concentration tested and IC50 values are estimated using DataXpress or QPatch software. At least two cells are tested, more if results diverge.

[4] = target: human dopamine transporter (DAT) (Homo sapiens (Human), UniProt Q01959); assay: Scintillation Proximity Assay (SPA) for human DAT binding ([3H]WIN-35,428); conditions: recombinant human DAT, CHO
Excerpt: as §1, §2, §3, §4
The potency of the compounds of the invention in blocking the DAT function is measured using an uptake assay in a recombinant CHO cell line expressing human DAT (hDAT-CHO). Potency is measured in terms of pIC50 by testing the compounds of invention for the inhibition of [^3H]-dopamine uptake in DAT-CHO cells using a SPA technology in 384 well format.
Briefly, on the days of the experiment hDAT-CHO cells are detached using Versene and added (75,000 cells/mL) to the SPA Mixture, which contains the following components in Assay Buffer (20 mM HEPES, 145 mM NaCl, 5 mM KCl, 2 mM CaCl2, 1 mM MgCl2 and 1 g/L glucose, pH 7.3): 0.02% w/v of Pluronic F127, 2 mg/mL SPA Imaging beads (RPNQ0260, PerkinElmer), 10 μM pargyline and 80 nM of [^3H]-dopamine. […]

Chain of human dopamine transporter (DAT) (Q01959 whole entry): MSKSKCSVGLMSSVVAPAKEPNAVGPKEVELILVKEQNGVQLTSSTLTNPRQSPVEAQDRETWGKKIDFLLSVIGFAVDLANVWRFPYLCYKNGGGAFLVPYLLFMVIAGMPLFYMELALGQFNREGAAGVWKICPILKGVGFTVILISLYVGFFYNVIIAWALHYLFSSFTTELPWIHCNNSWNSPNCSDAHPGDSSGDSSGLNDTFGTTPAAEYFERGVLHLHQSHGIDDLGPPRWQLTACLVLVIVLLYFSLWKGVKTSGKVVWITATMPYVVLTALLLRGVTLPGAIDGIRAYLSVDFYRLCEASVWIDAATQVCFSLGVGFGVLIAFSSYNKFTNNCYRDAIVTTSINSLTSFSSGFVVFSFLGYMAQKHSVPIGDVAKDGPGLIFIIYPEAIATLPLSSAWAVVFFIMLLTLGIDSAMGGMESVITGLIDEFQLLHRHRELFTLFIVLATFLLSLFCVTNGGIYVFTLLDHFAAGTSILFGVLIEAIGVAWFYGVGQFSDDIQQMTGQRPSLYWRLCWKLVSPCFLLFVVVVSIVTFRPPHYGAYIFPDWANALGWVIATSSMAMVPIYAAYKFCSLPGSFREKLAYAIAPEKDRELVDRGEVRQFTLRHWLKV
Chain of human serotonin transporter (SERT) (P31645 whole entry): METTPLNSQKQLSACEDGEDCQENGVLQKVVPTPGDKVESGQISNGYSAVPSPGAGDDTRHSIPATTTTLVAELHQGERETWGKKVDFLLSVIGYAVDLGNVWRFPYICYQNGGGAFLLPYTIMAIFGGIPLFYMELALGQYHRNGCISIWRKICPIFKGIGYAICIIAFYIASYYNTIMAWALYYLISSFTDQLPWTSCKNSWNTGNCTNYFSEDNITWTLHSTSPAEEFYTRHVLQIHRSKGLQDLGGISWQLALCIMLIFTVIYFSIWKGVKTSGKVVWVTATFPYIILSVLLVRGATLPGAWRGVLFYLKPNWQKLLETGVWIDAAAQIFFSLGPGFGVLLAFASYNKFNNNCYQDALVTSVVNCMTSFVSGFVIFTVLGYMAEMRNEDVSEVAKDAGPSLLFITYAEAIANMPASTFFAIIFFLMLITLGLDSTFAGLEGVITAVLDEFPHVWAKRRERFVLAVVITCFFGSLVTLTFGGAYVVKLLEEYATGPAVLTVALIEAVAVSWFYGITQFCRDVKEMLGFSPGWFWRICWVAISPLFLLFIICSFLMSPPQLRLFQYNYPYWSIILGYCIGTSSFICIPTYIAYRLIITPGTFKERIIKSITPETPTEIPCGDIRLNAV
Chain of human ERG potassium channel (hERG) (Q12809 whole entry): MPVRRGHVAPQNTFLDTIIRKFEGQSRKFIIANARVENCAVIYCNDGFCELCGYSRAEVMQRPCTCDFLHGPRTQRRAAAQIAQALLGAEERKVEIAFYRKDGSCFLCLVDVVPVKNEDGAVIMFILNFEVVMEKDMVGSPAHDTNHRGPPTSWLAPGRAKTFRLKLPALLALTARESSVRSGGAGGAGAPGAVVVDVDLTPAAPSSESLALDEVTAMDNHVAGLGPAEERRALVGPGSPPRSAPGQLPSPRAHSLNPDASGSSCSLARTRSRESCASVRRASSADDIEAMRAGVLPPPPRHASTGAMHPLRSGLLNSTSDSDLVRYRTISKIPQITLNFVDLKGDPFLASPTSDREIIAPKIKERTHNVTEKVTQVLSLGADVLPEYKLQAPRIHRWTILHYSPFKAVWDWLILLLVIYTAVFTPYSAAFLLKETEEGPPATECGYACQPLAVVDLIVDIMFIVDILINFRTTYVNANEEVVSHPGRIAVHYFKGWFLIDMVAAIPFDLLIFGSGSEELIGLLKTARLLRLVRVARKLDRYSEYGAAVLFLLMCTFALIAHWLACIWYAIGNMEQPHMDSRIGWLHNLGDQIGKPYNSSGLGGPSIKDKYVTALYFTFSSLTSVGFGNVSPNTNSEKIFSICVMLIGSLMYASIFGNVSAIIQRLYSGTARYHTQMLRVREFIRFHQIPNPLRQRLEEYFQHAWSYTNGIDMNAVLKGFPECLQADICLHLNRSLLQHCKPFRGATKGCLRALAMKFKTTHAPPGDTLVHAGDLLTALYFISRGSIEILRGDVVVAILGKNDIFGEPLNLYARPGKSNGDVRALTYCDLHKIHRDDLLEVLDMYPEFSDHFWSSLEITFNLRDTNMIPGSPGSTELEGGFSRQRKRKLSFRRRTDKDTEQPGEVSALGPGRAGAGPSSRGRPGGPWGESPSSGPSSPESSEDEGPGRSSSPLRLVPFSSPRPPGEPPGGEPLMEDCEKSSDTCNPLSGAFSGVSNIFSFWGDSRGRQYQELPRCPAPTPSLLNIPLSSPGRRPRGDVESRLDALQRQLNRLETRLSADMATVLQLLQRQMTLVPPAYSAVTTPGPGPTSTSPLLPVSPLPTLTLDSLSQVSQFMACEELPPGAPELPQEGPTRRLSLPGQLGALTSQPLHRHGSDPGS
Chain of human norepinephrine transporter (NET) (P23975 whole entry): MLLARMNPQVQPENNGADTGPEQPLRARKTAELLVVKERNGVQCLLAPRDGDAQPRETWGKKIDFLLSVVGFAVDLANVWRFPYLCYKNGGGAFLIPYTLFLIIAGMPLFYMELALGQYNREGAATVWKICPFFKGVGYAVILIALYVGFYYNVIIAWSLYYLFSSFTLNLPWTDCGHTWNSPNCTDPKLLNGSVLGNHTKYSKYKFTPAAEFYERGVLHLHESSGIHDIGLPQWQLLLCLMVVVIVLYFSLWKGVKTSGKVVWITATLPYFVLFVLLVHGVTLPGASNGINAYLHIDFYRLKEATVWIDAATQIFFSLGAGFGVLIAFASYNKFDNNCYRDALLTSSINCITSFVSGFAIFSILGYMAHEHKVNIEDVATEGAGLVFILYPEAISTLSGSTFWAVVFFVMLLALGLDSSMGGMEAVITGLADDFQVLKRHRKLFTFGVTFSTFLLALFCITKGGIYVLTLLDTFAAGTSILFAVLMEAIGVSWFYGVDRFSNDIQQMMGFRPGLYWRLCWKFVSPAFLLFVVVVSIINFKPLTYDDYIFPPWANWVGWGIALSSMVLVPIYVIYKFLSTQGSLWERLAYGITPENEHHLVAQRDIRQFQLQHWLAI

| Molecule | pIC50 NET [1] | IC50 [2] [µM] | pIC50 hERG [3] | pIC50 DAT [4] | pIC50 SERT [2] |
| --- | --- | --- | --- | --- | --- |
| O=C(NCC1(O)CCN(c2nc(Oc3cccc(F)c3)cc(C(F)(F)F)n2)CC1)c1cn[nH]c1 [Example 27, N-({1-[4-(3-fluorophenoxy)-6-(trifluoromethyl)pyrimidin-2-yl]-4-hydroxypiperidin-4-yl}methyl)-1H-pyrazole-4-carboxamide] | 5.65 | 34.7 | 5.3 | 7.72 |  |
| O=C(NCC1(O)CCN(c2nc(Oc3cccc(F)c3)cc(C(F)(F)F)n2)CC1)c1cnccn1 [Example 28, N-({1-[4-(3-fluorophenoxy)-6-(trifluoromethyl)pyrimidin-2-yl]-4-hydroxypiperidin-4-yl}methyl)pyrazine-2-carboxamide] | 5.96 | > 100 | 5.5 | 7.86 |  |
| NCC(=O)NCC1(O)CCN(c2nc(Oc3cccc(F)c3)cc(C(F)(F)F)n2)CC1 [Example 29, 2-amino-N-({1-[4-(3-fluorophenoxy)-6-(trifluoromethyl)pyrimidin-2-yl]-4-hydroxypiperidin-4-yl}methyl)acetamide] | 5.77 | 19.1 | 5.4 | 8.22 |  |
| NCC1(O)CCN(c2nc(Oc3cccc(F)c3)cc(C(F)(F)F)n2)C1 (stereo not shown) [Example 33, 3-(aminomethyl)-1-[4-(3-fluorophenoxy)-6-(trifluoromethyl)pyrimidin-2-yl]pyrrolidin-3-ol] | 6.52 | 19.1 | 5.8 | 8.86 |  |
| Fc1cccc(Oc2cc(C(F)(F)F)nc(N3CCc4nc[nH]c4C3)n2)c1 [Example 36, 4-(3-fluorophenoxy)-2-{3H,4H,5H,6H,7H-imidazo[4,5-c]pyridin-5-yl}-6-(trifluoromethyl)pyrimidine] | 6.01 | > 100 | 5.6 | 7.90 |  |
| Cl.Fc1cccc(Oc2cc(C(F)(F)F)nc(N3CCC4NCCCC4C3)n2)c1 (stereo not shown) [Example 39, 6-[4-(3-fluorophenoxy)-6-(trifluoromethyl)pyrimidin-2-yl]-decahydro-1,6-naphthyridine hydrochloride] | 7.51 | 3.02 | 6.2 | 8.90 |  |
| (3S or 3R)-3-[(cyclopropylamino)methyl]-1-[4-(3-fluorophenoxy)-6-(trifluoromethyl)pyrimidin-2-yl]pyrrolidin-3-ol [Example 31] | 6.86 |  | 5.7 | 8.75 | 4.46 |
